Laboratory results reported in the OPERA property sets (Mansouri et al. 2018).
Values after ≈ are worked out from the molar mass of the structure shown.

conditions: not given

Row | SMILES | logP | solubility [mM]
1 | CCCCCCCCn1sccc1=O | 2.45 | –
2 | O=C1C(Cl)C(CCl)CN1c1cccc(C(F)(F)F)c1 (configuration not stated) | 3.36 | –
3 | CC(C)C1CCC(Cc2ccc(Cl)cc2)C1(O)Cn1cncn1 (configuration not stated) | 4.21 | –
4 | CN(C)C(=O)SCCCCOc1ccccc1 | 3.28 | –
5 | C=CCN(CC=C)C(=O)C(Cl)Cl | 1.84 | –
6 | CN(C)C(=O)Nc1cc(C(C)(C)C)on1 | 1.98 | –
7 | CCOCN(C(=O)CCl)c1c(C)cccc1CC | 3.03 | –
8 | CC1=C(C)S(=O)(=O)CCS1(=O)=O | -0.17 | –
9 | O=C(NC(=O)c1c(F)cccc1F)Nc1ccc(CO/N=C(/c2ccc(Cl)cc2)C2CC2)cc1 | 6.97 | –
10 | Clc1ccccc1-c1nnc(-c2ccccc2Cl)nn1 | 3.1 | –
11 | O=C1C(Cl)=C(Cl)C(=O)N1c1ccc(F)cc1 | 2.3 | –
12 | CCOS(=O)(=O)c1ccc2c(c1)C(C)(C)CO2 | 2.41 | –
13 | O=C1CCc2cccc3c2N1CC3 | 1.57 | –
14 | CCOP(=S)(OCC)OP(=S)(OCC)OCC | 3.99 | –
15 | CC1(C)C(C=C(Cl)Cl)C1C(=O)OC(C#N)c1ccc(F)c(Oc2ccccc2)c1 (configuration not stated) | 5.95 | –
16 | C=CCNC(=O)CN(CC=C)C(=O)C(Cl)Cl | 1 | –
17 | CC(Oc1ccc(Oc2cnc3cc(Cl)ccc3n2)cc1)C(=O)OCC1CCCO1 (configuration not stated) | 4.32 | –
18 | CC(C)(C)c1ccc(CSc2cnn(C(C)(C)C)c(=O)c2Cl)cc1 | 6.37 | –
19 | C=C(C)CN(CC)c1c([N+](=O)[O-])cc(C(F)(F)F)cc1[N+](=O)[O-] | 5.11 | –
20 | CCCSP(=O)(OCC)SCCC | 3.59 | –
21 | CCOC(=O)CCN(Cc1ccccc1)SN(C)C(=O)O/N=C(/C)SC | 3.43 | –
22 | N#CC(=NOCC1OCCO1)c1ccccc1 | 2.76 | –
23 | CCOCCOC(=O)C(C)Oc1ccc(Oc2ncc(C(F)(F)F)cc2Cl)cc1 (configuration not stated) | 4.33 | –
24 | N=C(N)NCCCCCCCCNCCCCCCCCNC(=N)N | – | 2150 (≈ 764000 µg/mL)

Row | SMILES | logP | solubility [mM]
25 | CCOC(=O)Nc1cccc(OC(=O)Nc2ccccc2)c1 | 3.39 | –
26 | CC(Oc1ccc(Oc2ncc(Cl)cc2Cl)cc1)C(=O)N1CCCO1 (configuration not stated) | 3.36 | –
27 | COP(=S)(OC)SCC(=O)N(c1ccc(Cl)cc1)C(C)C | 3.81 | –
28 | Cc1nc(N(C)C)nc(OC(=O)N(C)C)c1C | 1.7 | –
29 | CCOP(=S)(NC(C)CC)Oc1cc(C)ccc1[N+](=O)[O-] (configuration not stated) | 4.62 | –
30 | CCOC(=O)CCCOc1ccc(Cl)cc1C | 4.26 | –
31 | CCOC(=O)Cn1c(=O)sc2cccc(Cl)c21 | 2.5 | –
32 | CC1(C)CON(Cc2ccccc2Cl)C1=O | 2.5 | –
33 | CCCCC(CC)CN1C(=O)C2C3C=CC(C3)C2C1=O (configuration not stated) | 3.7 | –
34 | S=C([S-])NCCNC(=S)[S-].[Na+].[Na+] | – | 780
35 | COP(=S)(OC)Oc1c(Cl)cc(C)cc1Cl | 4.56 | –
36 | COc1ccc(C(O)(c2cncnc2)C2CC2)cc1 (configuration not stated) | 1.91 | –
37 | CC1COc2ccccc2N1C(=O)C(Cl)Cl (configuration not stated) | 2.7 | –
38 | COCCOc1ccccc1S(=O)(=O)N=C(O)N=c1nc(OC)[nH]c(OC)n1 | 2.04 | –
39 | N#Cc1c[nH]cc1-c1cccc2c1OC(F)(F)O2 | 4.12 | –
40 | Cc1cnc(C2=NC(=O)C(C)(C(C)C)N2)c(C(=O)O)c1 (configuration not stated) | 2.47 | –
41 | CCOP(=S)(OCC)OC(Cl)C(Cl)(Cl)Cl (configuration not stated) | 4.59 | –
42 | COc1ccc(C(=CC(=O)N2CCOCC2)c2ccc(Cl)cc2)cc1OC | 2.68 | –
43 | CCCN(CCC)C(=O)SCc1ccccc1 | 4.65 | –
44 | CCC1OCC(COc2ccc(Oc3ccccc3)cc2)O1 (configuration not stated) | 4.35 | –
45 | CN(C)C(O)=Nc1ccc(-n2nc(C(C)(C)C)oc2=O)c(Cl)c1 | 2.51 | –
46 | Fc1ccc(C2(Cn3cncn3)OC2c2ccccc2Cl)cc1 (configuration not stated) | 3.44 | –
47 | C#CCC1=C(C)C(OC(=O)C2C(C=C(C)C)C2(C)C)CC1=O (configuration not stated) | 4.49 | –
48 | CC(C)C(O)(c1ccc(OC(F)(F)F)cc1)c1cncnc1 (configuration not stated) | 3.34 | –

same assay, conditions: 20 °C

Row | SMILES | solubility [mM]
49 | CCOC(=O)c1cnn(C)c1S(=O)(=O)NC(=O)Nc1nc(OC)cc(OC)n1 | 0.035 (≈ 14.5 µg/mL)
50 | CCc1cccc(C)c1N(COC(C)C)C(=O)CCl | 0.648 (≈ 184 µg/mL)
51 | O=C1c2ccccc2C(=O)C1C(=O)C(c1ccccc1)c1ccc(Cl)cc1 (configuration not stated) | 0.267 (≈ 100 µg/mL)
52 | CSc1nnc(C(C)(C)C)c(=O)n1N | 5.28 (≈ 1130 µg/mL)
53 | CNC(=O)O/N=C(\C)C(C)S(C)(=O)=O (configuration not stated) | 940 (≈ 209000 µg/mL)
54 | CCNC(=O)C(C)OC(=O)Nc1ccccc1 (configuration not stated) | 14.8 (≈ 3500 µg/mL)
55 | COc1cccc(N(C)C(=S)Oc2cccc(C(C)(C)C)c2)n1 | 0.000968 (≈ 0.32 µg/mL)
56 | CNC(=O)Oc1ccccc1OC(CCl)OC (configuration not stated) | 5.01 (≈ 1300 µg/mL)
57 | COC(=O)/C(C)=C/OP(=S)(OC)OC | 1.67 (≈ 400 µg/mL)
58 | CCCSP(=O)(OCC)Oc1cnn(-c2ccc(Cl)cc2)c1 (configuration not stated) | 0.0915 (≈ 33 µg/mL)
59 | CNC(=O)Oc1cc(C)c(SC)c(C)c1 | 0.0729 (≈ 16.4 µg/mL)
60 | CC(Oc1ccc(Oc2cnc3cc(Cl)ccc3n2)cc1)C(=O)O (configuration not stated) | 0.00087 (≈ 0.3 µg/mL)
61 | ClC1=C(Cl)C(Cl)(C2(Cl)C(Cl)=C(Cl)C(Cl)=C2Cl)C(Cl)=C1Cl | 5.27e-05 (≈ 0.025 µg/mL)
62 | C=CCNC(=O)CN(CC=C)C(=O)C(Cl)Cl | 91.3 (≈ 24200 µg/mL)
63 | CC#Cc1cc(C)nc(Nc2ccccc2)n1 | 0.0139 (≈ 3.1 µg/mL)
64 | CN(C)S(=O)(=O)N(SC(F)(Cl)Cl)c1ccccc1 | 0.0039 (≈ 1.3 µg/mL)
65 | O=C(O)CCCc1c[nH]c2ccccc12 | 1.23 (≈ 250 µg/mL)
66 | CN(C(O)=NC(C)(C)c1ccccc1)c1ccccc1 | 0.447 (≈ 120 µg/mL)
67 | CCN(C(=O)SCc1ccccc1)C(C)C(C)C (configuration not stated) | 0.0185 (≈ 4.9 µg/mL)
68 | CCOP(=O)(Oc1ccc(Cl)cc1Cl)Oc1ccc(Cl)cc1Cl | 0.00168 (≈ 0.7 µg/mL)
69 | CC1COc2ccccc2N1C(=O)C(Cl)Cl (configuration not stated) | 0.0769 (≈ 20 µg/mL)
70 | CCCN(CCC)C(=O)SCc1ccccc1 | 0.0525 (≈ 13.2 µg/mL)
71 | CCC(C)c1ccccc1OC(=O)NC (configuration not stated) | 3.18 (≈ 660 µg/mL)
72 | CCCCOC(=O)C1(O)c2ccccc2-c2ccccc21 | 0.129 (≈ 36.5 µg/mL)
73 | CC(C)(C)[C@@H](O)[C@@H](Cc1ccc(Cl)cc1)n1cncn1 (single isomer, unassigned) | 0.103 (≈ 30.2 µg/mL)
74 | NCCO.O=C(Nc1ccc([N+](=O)[O-])cc1Cl)c1cc(Cl)ccc1O | 0.258
75 | CNC(=O)Oc1ccc(C)c(C)c1 | 7.25 (≈ 1300 µg/mL)
76 | CC(C)C(O)(c1ccc(OC(F)(F)F)cc1)c1cncnc1 (configuration not stated) | 0.365 (≈ 114 µg/mL)

same assay, conditions: 22 °C

Row | SMILES | solubility [mM]
77 | CC(C)c1ccc(NC(=O)N(C)C)cc1 | 0.291 (≈ 60 µg/mL)

same assay, conditions: 24 °C

Row | solubility [mM] | SMILES
78 | 0.943 (≈ 225 µg/mL) | CCOC(=O)Cc1[nH]nc2ccc(Cl)cc12

same assay, conditions: 25 °C

Row | SMILES | solubility [mM]
79 | COc1nc(NC(C)C)nc(NC(C)C)n1 | 3.33 (≈ 750 µg/mL)
80 | CCn1cc(C(=O)O)c(=O)c2cc3c(cc21)OCO3 | 0.0122 (≈ 3.2 µg/mL)
81 | Oc1ccccc1-c1ccccc1 | 4.11 (≈ 700 µg/mL)
82 | CC1=C(C)S(=O)(=O)CCS1(=O)=O | 21.9 (≈ 4600 µg/mL)
83 | O=C(O)CCCOc1ccc(Cl)cc1Cl | 0.213 (≈ 53 µg/mL)
84 | CCCCOC(=O)N(C)SN(C)C(=O)Oc1cccc2c1OC(C)(C)C2 | 0.0274 (≈ 10.5 µg/mL)
85 | O=C(OCc1ccccc1)c1sc(Cl)nc1C(F)(F)F | 0.00155 (≈ 0.5 µg/mL)
86 | CC(C)C1(C)N=C(c2ncccc2C(=O)O)NC1=O (configuration not stated) | 43.3 (≈ 11300 µg/mL)
87 | CON(C)C(=O)Nc1ccc(Oc2ccc3c(c2)OC(C)(OC)CC3(C)C)cc1 (configuration not stated) | 0.000999 (≈ 0.4 µg/mL)
88 | CC(Oc1ccc(Oc2cnc3cc(Cl)ccc3n2)cc1)C(=O)OCC1CCCO1 (configuration not stated) | 0.00933 (≈ 4 µg/mL)
89 | CCCCN(CCCC)SN(C)C(=O)Oc1cccc2c1OC(C)(C)C2 | 0.000788 (≈ 0.3 µg/mL)
90 | CCCN(CCC)c1c([N+](=O)[O-])cc(C(F)(F)F)c(N)c1[N+](=O)[O-] | 3.71e-05 (≈ 0.013 µg/mL)
91 | CC(Oc1ccc(Oc2ncc(Cl)cc2Cl)cc1)C(=O)N1CCCO1 (configuration not stated) | 0.0256 (≈ 9.8 µg/mL)
92 | CCOP(=S)(NC(C)CC)Oc1cc(C)ccc1[N+](=O)[O-] (configuration not stated) | 0.0169 (≈ 5.62 µg/mL)
93 | COP(=S)(OC)Oc1c(Cl)cc(C)cc1Cl | 0.0022 (≈ 0.663 µg/mL)
94 | Nc1c(Cl)c(Cl)nc(C(=O)O)c1Cl | 1.78 (≈ 430 µg/mL)
95 | O=C1OCc2c(Cl)c(Cl)c(Cl)c(Cl)c21 | 0.00919 (≈ 2.5 µg/mL)
96 | Cc1cnc(C2=NC(=O)C(C)(C(C)C)N2)c(C(=O)O)c1 (configuration not stated) | 8.11 (≈ 2230 µg/mL)
97 | CCC1OCC(COc2ccc(Oc3ccccc3)cc2)O1 (configuration not stated) | 0.0163 (≈ 4.9 µg/mL)
98 | Cc1c(Cl)ccc(OC(C)C(O)=Nc2ccccc2)c1Cl (configuration not stated) | 9.87e-05 (≈ 0.032 µg/mL)
99 | C#CCC1=C(C)C(OC(=O)C2C(C=C(C)C)C2(C)C)CC1=O (configuration not stated) | 0.0266 (≈ 8 µg/mL)
100 | CCOC(=O)C1(C)OC(=O)N(c2cc(Cl)cc(Cl)c2)C1=O (configuration not stated) | 0.0241 (≈ 8 µg/mL)

same assay, conditions: 27 °C

Row | solubility [mM] | SMILES
101 | 0.00257 (≈ 0.75 µg/mL) | CC(Oc1ccc2ccccc2c1)C(O)=Nc1ccccc1 (configuration not stated)

same assay, conditions: 30 °C

Row | solubility [mM] | SMILES
102 | 0.00295 (≈ 1 µg/mL) | O=C(Nc1ccc(Cl)cc1C(O)c1ccccc1)c1ccncc1 (configuration not stated)
